Assay results from paper PMC11345829, “Discovery of Potent Isoquinolinequinone N-Oxides to Overcome Cancer Multidrug Resistance” (Journal of Medicinal Chemistry, 2024).

Experiments:
colon cell line panel = assay: NCI60 five-dose GI50, colon cell line panel; format: cell-based; details: Homo sapiens, read-out: GI50 range colon cell line panel
Source text: The concentration−response curve generated enables the determination of three criteria, GI50 (drug concentration at which 50% of cell growth is inhibited), total growth inhibition (TGI) and LC50 (drug concentration at which 50% of tumor cells are killed) which can be used to compare effectiveness against any compound tested in the screen since its inception.
S2.1 NCI Screening Assay Experimental details
NCI Screening Assay Experimental: Cancer cell growth assays (NCI60 screening) 5,6 One-dose study: Tested compounds were initially solubilised in DMSO, diluted into RPMI 1640 and 5% fetal bovine serum/L-glutamine, and added to 96-well plates containing cell lines previously cultured for 24 h. […] The dye was then resolubilised in Tris buffer, and the colorimetric absorbance was measured (515 nm). Growth inhibition was measured relative to the response generated from proliferating cells cultured under identical conditions for 48 h. […]
Five-dose study: Serial 5 × 10-fold dilution from an initial DMSO stock solution was performed, prior to incubation at each individual concentration (10 nM, 100 nM, 1 μM, 10 μM and 100 μM). Using seven absorbance measurements (time zero (Tz), control growth (C), and test growth in the presence of drug at the five concentration levels (Ti)), the percentage growth was calculated at each of the drug concentrations levels. […]

[1] = target: T1, P-gp mediated drug efflux in NCI-H460/R cells (Homo sapiens, UniProt P08183); assay: Rhodamine-123 accumulation (drug efflux) assay; format: cell-based; details: 1 h, 10 or 20 μM
T1 construct: these cells overexpress the MDR1 gene which encodes for P-gp; endogenous in cells; host or cells: NCI-H460/R (doxorubicin-selected MDR human NSCLC cells)
T1 sequence (P08183 whole entry): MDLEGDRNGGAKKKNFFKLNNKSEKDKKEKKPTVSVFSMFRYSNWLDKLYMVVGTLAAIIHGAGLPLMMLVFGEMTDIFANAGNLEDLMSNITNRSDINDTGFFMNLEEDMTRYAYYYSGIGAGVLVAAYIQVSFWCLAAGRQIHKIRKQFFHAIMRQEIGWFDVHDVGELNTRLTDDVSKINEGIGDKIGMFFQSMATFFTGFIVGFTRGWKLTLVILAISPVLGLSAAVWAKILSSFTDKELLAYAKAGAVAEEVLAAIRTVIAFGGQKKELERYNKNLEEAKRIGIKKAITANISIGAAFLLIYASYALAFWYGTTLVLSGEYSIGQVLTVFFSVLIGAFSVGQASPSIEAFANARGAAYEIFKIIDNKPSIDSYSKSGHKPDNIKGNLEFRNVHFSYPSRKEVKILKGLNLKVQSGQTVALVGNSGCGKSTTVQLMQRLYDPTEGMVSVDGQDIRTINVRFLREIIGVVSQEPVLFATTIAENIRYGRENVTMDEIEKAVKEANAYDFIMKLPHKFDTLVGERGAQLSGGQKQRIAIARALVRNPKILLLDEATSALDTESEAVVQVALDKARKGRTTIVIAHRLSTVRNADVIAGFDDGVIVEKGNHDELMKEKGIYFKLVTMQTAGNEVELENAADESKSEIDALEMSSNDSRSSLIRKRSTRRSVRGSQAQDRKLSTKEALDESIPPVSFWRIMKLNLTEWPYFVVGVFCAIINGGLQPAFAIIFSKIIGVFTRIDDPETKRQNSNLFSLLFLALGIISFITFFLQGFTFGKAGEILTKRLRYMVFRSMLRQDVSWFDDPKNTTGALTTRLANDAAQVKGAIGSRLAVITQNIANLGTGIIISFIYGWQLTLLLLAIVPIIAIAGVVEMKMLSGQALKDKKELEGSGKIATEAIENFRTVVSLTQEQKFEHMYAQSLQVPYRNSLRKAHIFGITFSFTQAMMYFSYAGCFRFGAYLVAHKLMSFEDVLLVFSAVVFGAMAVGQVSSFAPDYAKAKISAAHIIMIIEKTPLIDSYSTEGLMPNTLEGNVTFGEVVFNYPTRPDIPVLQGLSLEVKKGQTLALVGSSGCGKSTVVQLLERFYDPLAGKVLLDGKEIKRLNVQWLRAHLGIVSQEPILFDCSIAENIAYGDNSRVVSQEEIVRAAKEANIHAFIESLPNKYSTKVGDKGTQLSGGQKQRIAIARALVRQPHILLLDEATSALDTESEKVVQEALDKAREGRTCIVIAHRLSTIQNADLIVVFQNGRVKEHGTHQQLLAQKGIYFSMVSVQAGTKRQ
Method: Figure 11 Relative rhodamine-123 accumulation in NCI-H460 or in NCI-H460/R cells following treatment with compound 25, evaluated by flow cytometry (rhodamine-123 efflux assay). Cells were incubated for 1 h with medium, DMSO (vehicle at the % used in the highest tested concentration of 25), verapamil (positive control), or compound 25 at two different concentrations (10 and 20 μM). Verapamil (20 μM) was used as a positive control (P-gp inhibitor). Results are the mean ± SEM of at least 3 independent experiments. * p ≤ 0.05, when comparing vehicle (DMSO) vs compound treatment in NCI-H460/R cells.
The NSCLC cells (1.5 × 10^5 cells/mL) were incubated for 1 h at 37 °C in the presence of 10 μM or 20 μM of compound 25 and with 1 μM of rhodamine-123 (Sigma-Aldrich). NCI-H460 cells without treatment were used as a negative control and NCI-H460/R cells treated with verapamil (a known P-gp inhibitor) at concentrations of 10 and 20 μM were used as a positive controls.[80],[81] After the incubation time, cells were washed in cold PBS and kept at 4 °C, protected from light until analysis in the flow cytometer. At least 10 000 cells per sample were acquired and analyzed on the BD Accuri C6 flow cytometer.

NCI-H460/R spheroids = assay: Cell Titer-Glo 3D spheroid viability assay; format: cell-based, human; details: 48 h; 25 at 0.35 and 0.7 μM; etoposide 2 μM
Method: Results are presented as the % of luciferase luminescence relative to the “blank” cells (medium).
Spheroid formation was conducted in 12-series agarose 3D Petri Dish micromolds (MicroTissues Technology, MicroTissues Inc., Sigma-Aldrich). The agarose micromolds were prepared using 1% agarose in a 0.9% NaCl solution and then placed in 12-well plates and equilibrated with RPMI supplemented with 10% FBS for at least 2 h before cell seeding. Cell suspensions corresponding to 500 cells per spheroid of the NSCLC cell lines (NCI-H460 and NCI-H460/R), and 1000 cells per spheroid of the colorectal cancer cell lines (DLD1 and DLD1-TxR) were seeded in the corresponding micromolds. […] Spheroid formation was monitored with the Leica DMi1 microscope. […] At the end of the treatment, images from at least 8 different spheroids per condition were captured on the Leica Dmi1 microscope, and posteriorly analyzed with the automated open-source software AnaSP.[82] Spheroid parameters, such as equivalent diameter, circularity, and compactness, were calculated.
Spheroid viability was determined through the luminescence-based Cell Titer-Glo 3D cell viability assay (Promega). […] The plate was then incubated in the dark for 5 min with agitation and allowed to rest for 25 min before luminescence measurement. Luminescence was quantified using the microplate reader Synergy MX coupled with the GEN5 software. […]

## COC(=O)c1c2c(c[n+]([O-])c1C)C(=O)C=C(NCc1ccccc1)C2=O [Compound 25]
Colon cell line panel
  GI50: 157 to 247 nM
[1]
  rhodamine-123 accumulation: caused rhodamine accumulation within the cells, in a similar extent to the positive control verapamil
NCI-H460/R spheroids
  viability of NCI-H460/R spheroids: significant decrease in the viability of the spheroids
